Reference: patent US7255984B2, “Combination therapy for osteoporosis” (Pfizer Inc., priority 1996, dated 2007)

Experiments:
[1] = system: ovariectomized (OVX) rats, lumbar spine; assay: Lumbar vertebral bone mineral measurements (DXA) in OVX rats, combination and sequential treatment; assay type: in vivo, female Sprague-Dawley rats
Protocol: One hundred and four female Sprague-Dawley rats (Charles River, Wilmington, Mass.) at 12 months of age were sham-operated or ovariectomized (OVX) at month 0. Three months post-surgery, OVX rats were treated with either Prostaglandin E2 (PGE2), a known anabolic bone agent, at 3 mg/kg/day (subcutaneously injection), or PGE2 at 3 mg/kg/day (subcutaneously injection) combined with droloxifene (DRO) at 10 mg/kg/day (orally) for 2 months. Thereafter, the PGE2 treatment was withdrawn and the rats were then treated with either vehicle (10% alcohol in saline) or DRO (10 mg/kg/day, orally) for another one and a half months as described in the following.
Group VIII: Eight OVX rats were subcutaneously injected with 3 mg/kg/day of PGE2 from months 3 to 5, and autopsied at month 5.
Group IX: Eight OVX rats were subcutaneously injected with 3 mg/kg/day of PGE2 from months 3 to 5, and vehicle from 5 to 6.5 months, and then autopsied at month 6.5.
Group X: Eight OVX rats were subcutaneously injected with 3 mg/kg/day of PGE2 from months 3 to 5, and 10 mg/kg/day of DRO orally from 5 to 6.5 months, and then autopsied at month 6.5.
Group XI: Eight OVX rats were subcutaneously injected with 3 mg/kg/day of PGE2 and 10 mg/kg/day of DRO orally from months 3 to 5, and then autopsied at month 5.
Group XII: Eight OVX rats were subcutaneously injected with 3 mg/kg/day of PGE2 and 10 mg/kg/day of DRO orally from months 3 to 5, and vehicle from months 5 to 6.5, then autopsied at month 6.5.
Group XIII: Eight OVX rats were subcutaneously injected with 3 mg/kg/day of PGE2 and 10 mg/kg/day of DRO orally from months 3 to 5, and DRO alone from months 5 to 6.5, then autopsied at month 6.5.
Both PGE2 (Cayman Chemical Co., Ann Arbor, Mich.) or droloxifene (Pfizer Inc. Groton, Conn.) powder was first dissolved in 100% ethanol and further diluted with saline into desired concentrations (final ethanol concentration was 10%). A PGE2 solution was daily injected subcutaneously on the back at 1 ml/kg. A droloxifene solution was given daily p.o. at 1 ml/rat.
Dual energy x-ray absorptiometry (QDR 1000/W, Hologic, Inc., Waltham, Mass.) equipped with a “Regional High Resolution Scan” software (Hologic, Inc., Waltham, Mass.) was used to determined the bone area, bone mineral content (BMC), and bone mineral density (BMD) of whole lumbar spine and each of the six lumbar vertebrae (LV1-6) in the anesthetized rats. The rats were anesthetized by injection (i.p.) of 1 ml/kg of a mixture of ketamine/rompun (ratio of 4 to 3), and then placed on the rat platform. The scan field sized was 6×1.9 cm, resolution was 0.0254×0.0127 cm, and scan speed was 7.25 mm/sec. The whole lumbar spine scan image was obtained and analyzed. Bone area (BA), and bone mineral content (BMC) were determined, and bone mineral density was calculated (MBC divided by BA) for the whole lumbar spine and each of the six lumbar vertebrae (LV1-6).

[2] = system: Osteogenic Female Rat Skeleton; conditions: risedronate administered after discontinuing PGE2; cited from earlier work
[3] = system: Ovariectomized Rats; conditions: cited from earlier work
[4] = OVX rats, PGE2 3 mg/kg/day months 3 to 5, then vehicle months 5 to 6.5

CC/C(=C(/c1ccc(OCCN(C)C)cc1)c1cccc(O)c1)c1ccccc1 [DRO, phenol, 3-[1-[4[2-(dimethylamino)ethoxy]phenyl]-2-phenyl-1-butenyl]-, (E)-]
Effect of DRO on the anabolic effects of PGE2 ([1]; OVX rats, DRO 10 mg/kg/day orally combined with PGE2 3 mg/kg/day s.c. for 2 months): did not blunt
Maintenance of PGE2-restored bone after discontinuation of PGE2 ([1]; OVX rats, PGE2 months 3 to 5, then DRO 10 mg/kg/day orally months 5 to 6.5): completely maintained
Bone loss in the lumbar spine when PGE2 was withdrawn and DRO continued for another 1.5 months ([1]; OVX rats, PGE2 plus DRO months 3 to 5, then DRO alone 10 mg/kg/day months 5 to 6.5): no bone loss

O=P(O)(O)C(O)(Cc1cccnc1)P(=O)(O)O [risedronate]
Time for which most of the new cancellous and cortical bone induced by PGE2 is maintained after discontinuing PGE2 [2]: at least 60 days

CCCCC[C@H](O)/C=C/[C@H]1[C@H](O)CC(=O)[C@@H]1C/C=C\CCCC(=O)O [PGE2, Prostaglandin E2]
BMC of LV2 upon PGE2 cessation of treatment [1, 4]: significant decrease
BMD of LV1, LV2, and LV3 upon PGE2 cessation of treatment [1, 4]: significant decrease
BMC and BMD of whole lumbar spine and lumbar vertebrae versus sham control levels ([1]; rats 3 months post-OVX, treated for 2 months (months 3 to 5), PGE2 3 mg/kg/day s.c., DRO 10 mg/kg/day orally): completely restored

O=C(c1ccc(OCCN2CCCCC2)cc1)c1c(-c2ccc(O)cc2)sc2cc(O)ccc12 [raloxifene, 6hydroxy-2-(4-hydroxyphenyl)-3-[4-(2-piperidinoethoxy)benzoyl]benzo[b]thiophene]
Action on bone and lipids ([3]; compared with estrogen): mimics the favorable action of estrogen
Uterine stimulatory effect ([3]; unlike estrogen): minimal
